Seven compounds from PubChem BioAssay AID328 (DTP/NCI, 2004) can be followed below.

SMILES strings stand for the structures. Toxic doses and inconclusive results are not listed.

The test system of test [1] is BDF1 mice, P388 leukemia ip. As to the kind of experiment: NCI In Vivo Anticancer Drug Screen. Data for tumor model P388 Leukemia (intraperitoneal) in B6D2F1 (BDF1) mice. The following applies: endpoint: mean survival time, schedule: Q01DX010 (ip), vehicle: carboxymethylcellulose (CMC), higher = longer survival. Put shortly:
(§1)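 In tumour-bearing mice, survival after compound treatment is set against the vehicle group and given as a quotient.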

Test [2] relates to BDF1 mice, P388 leukemia ip, median survival T/C. Described as above. The following applies: endpoint: median survival time, higher = longer survival. In outline: as §1
[3] abbreviates: dose: 100.0 mg/kg/injection, schedule: Q04DX003 (ip), vehicle: saline.
Setting [4] is: dose: 200.0 mg/kg/injection, schedule: Q04DX003 (ip), vehicle: saline.

For the compound `CC(C)=CC(=O)C1C(=O)c2ccccc2C1=O`, the T/C in test [1] (dose: 25.0 mg/kg/injection) was 93 % of control; in test [1] (dose: 50.0 mg/kg/injection) it was 101 % of control; in test [1] (dose: 100.0 mg/kg/injection) it was 101 % of control; in test [1] (dose: 200.0 mg/kg/injection) it was 96 % of control.
For `CC(C)(O)CCC(=O)C(C)(O)C1C(O)CC2(C)C3CC=C4C(CC(O)C(=O)C4(C)C)C3(C)C(=O)CC12C` (configuration not stated), the T/C in test [2] (dose: 1.0 mg/kg/injection, schedule: Q01DX010 (ip), vehicle: carboxymethylcellulose (CMC)) is 121 % of control; in test [2] (dose: 2.0 mg/kg/injection, schedule: Q01DX010 (ip), vehicle: carboxymethylcellulose (CMC)), 121 % of control; in test [2] (dose: 4.0 mg/kg/injection, schedule: Q01DX010 (ip), vehicle: carboxymethylcellulose (CMC)), 121 % of control; in test [1] (dose: 1.0 mg/kg/injection) it was 97 % of control; in test [1] (dose: 2.0 mg/kg/injection) it was 86 % of control.
As for `Cc1cc(NC(=O)NCc2ccc(N3C(N)=NC(N)=NC3(C)C)cc2)ccc1S(=O)(=O)F`, the T/C in test [2] (dose: 2.1 mg/kg/injection, schedule: Q01DX009 (ip), vehicle: saline with Tween-80) was 108 % of control; in test [2] (dose: 3.1 mg/kg/injection, schedule: Q01DX009 (ip), vehicle: saline with Tween-80) it was 113 % of control; in test [2] (dose: 4.8 mg/kg/injection, schedule: Q01DX009 (ip), vehicle: saline) it was 123 % of control; in test [2] (dose: 25.0 mg/kg/injection, schedule: Q01DX009 (ip), vehicle: saline), 172 % of control; in test [2] (dose: 45.0 mg/kg/injection, schedule: Q04DX003 (ip), vehicle: saline with Tween-80) it was 150 % of control; in test [2] (dose: 50.0 mg/kg/injection, schedule: Q01DX009 (ip), vehicle: saline), 209 % of control. Further, the T/C was 115 % of control in test [2] (dose: 100.0 mg/kg/injection, schedule: Q04DX003 (ip), vehicle: alcohol); 195 % of control in test [2] (dose: 264.0 mg/kg/injection, schedule: Q04DX003 (ip), vehicle: saline); 155 % of control in test [2] (dose: 400.0 mg/kg/injection, schedule: Q04DX003 (ip), vehicle: alcohol).
As to `CSc1cc(C)c(O)c(C)c1`, the T/C was 104 % of control in test [2] (dose: 50.0 mg/kg/injection, schedule: Q01DX009 (ip), vehicle: other); 104 % of control in test [2] (dose: 100.0 mg/kg/injection, schedule: Q01DX009 (ip), vehicle: other); 104 % of control in test [2] (dose: 200.0 mg/kg/injection, schedule: Q01DX009 (ip), vehicle: other).
Consider `CCOC(=O)C1=C2c3ccc4ccccc4c3CCC2(C)C(=O)C1` (configuration not stated), for which the T/C is 104 % of control in test [2] (dose: 10.0 mg/kg/injection, schedule: Q01DX009 (sc), vehicle: steriod suspending solution); 91 % of control in test [2] (dose: 18.0 mg/kg/injection, schedule: Q04DX003 (sc), vehicle: steriod suspending solution); 95 % of control in test [2] (dose: 20.0 mg/kg/injection, schedule: Q01DX009 (sc), vehicle: steriod suspending solution); 95 % of control in test [2] (dose: 37.5 mg/kg/injection, schedule: Q04DX003 (sc), vehicle: steriod suspending solution); 100 % of control in test [2] (dose: 40.0 mg/kg/injection, schedule: Q01DX009 (sc), vehicle: steriod suspending solution); 108 % of control in test [2] (dose: 75.0 mg/kg/injection, schedule: Q04DX003 (sc), vehicle: steriod suspending solution).
As to `COC1C(OC(=O)/C=C/C=C/C=C/C=C/C(=O)O)CCC2(CO2)C1C1(C)OC1CC=C(C)C` (configuration not stated), the T/C in test [2] (dose: 88.0 mg/kg/injection, schedule: Q04DX003 (ip), vehicle: saline with Tween-80) was 281 % of control; in test [2] (setting [3]), 100 % of control; in test [2] (dose: 132.0 mg/kg/injection, schedule: Q04DX003 (ip), vehicle: saline with Tween-80) it was 281 % of control; in test [2] (setting [4]), 117 % of control.
For `CC(O)(C(=O)O)c1ccccc1` (configuration not stated) (tested in a mixture with another compound), the T/C in test [2] (dose: 100.0 mg/kg/injection, schedule: Q01DX001 (ip), vehicle: saline) is 103 % of control; in test [2] (setting [3]), 100 % of control; in test [2] (dose: 200.0 mg/kg/injection, schedule: Q01DX001 (ip), vehicle: saline), 107 % of control; in test [2] (setting [4]), 113 % of control; in test [2] (dose: 400.0 mg/kg/injection, schedule: Q01DX001 (ip), vehicle: saline), 107 % of control; in test [2] (dose: 400.0 mg/kg/injection, schedule: Q04DX003 (ip), vehicle: saline) it was 95 % of control.
